Measured values from patent US20260234157A1, “COMPOUND AND METHOD FOR TARGETED DEGRADATION OF ANDROGEN RECEPTOR” (Gan & Lee Pharmaceuticals Co., Ltd., priority 2023, published 2026).
Positions count from the first letter of the chain named. Where two headings read alike, the source gives them in different places.

How the values were obtained:
Format in all cases: cell-based
VCaP cells = experiment: Inhibition of proliferation of VCaP cells (WST-8); details: Homo sapiens, read-out: IC50 for inhibiting the proliferation of VCaP cells
How it was run: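 VCaP FGC cells, 15000 per well in DMEM with 10% FBS, were cultured at 37° C, 5% CO2. On day nine, WST-8 reagent was added to read proliferation.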

LNCaP FGC cells = experiment: Inhibition of proliferation of LNCaP cells (WST-8)
Protocol: The cells were cultured in a cell culture incubator with 5% CO2 at 37° C. overnight. […] On the sixth day, 96 well plates were taken out, and 20 μL of WST-8 (Beytime, C0040) reagent was added to each well.

AR protein [1] = target: T1, AR protein (Homo sapiens, UniProt P10275); experiment: Degradation of AR protein in VCaP cells (Western blot); details: 8 hours; for inhibition at 0.01 µM: compound at 10 nM, read-out: Degradation rate of the AR protein in VCaP cells, 10 nM (%); for inhibition at 0.1 µM: compound at 100 nM, read-out: Degradation rate of the AR protein in VCaP cells, 100 nM (%)
T1 construct: degradation activity of the compounds disclosed in the present disclosure on AR protein in VCaP cells; host or cells: VCaP
T1 sequence (P10275 1-920): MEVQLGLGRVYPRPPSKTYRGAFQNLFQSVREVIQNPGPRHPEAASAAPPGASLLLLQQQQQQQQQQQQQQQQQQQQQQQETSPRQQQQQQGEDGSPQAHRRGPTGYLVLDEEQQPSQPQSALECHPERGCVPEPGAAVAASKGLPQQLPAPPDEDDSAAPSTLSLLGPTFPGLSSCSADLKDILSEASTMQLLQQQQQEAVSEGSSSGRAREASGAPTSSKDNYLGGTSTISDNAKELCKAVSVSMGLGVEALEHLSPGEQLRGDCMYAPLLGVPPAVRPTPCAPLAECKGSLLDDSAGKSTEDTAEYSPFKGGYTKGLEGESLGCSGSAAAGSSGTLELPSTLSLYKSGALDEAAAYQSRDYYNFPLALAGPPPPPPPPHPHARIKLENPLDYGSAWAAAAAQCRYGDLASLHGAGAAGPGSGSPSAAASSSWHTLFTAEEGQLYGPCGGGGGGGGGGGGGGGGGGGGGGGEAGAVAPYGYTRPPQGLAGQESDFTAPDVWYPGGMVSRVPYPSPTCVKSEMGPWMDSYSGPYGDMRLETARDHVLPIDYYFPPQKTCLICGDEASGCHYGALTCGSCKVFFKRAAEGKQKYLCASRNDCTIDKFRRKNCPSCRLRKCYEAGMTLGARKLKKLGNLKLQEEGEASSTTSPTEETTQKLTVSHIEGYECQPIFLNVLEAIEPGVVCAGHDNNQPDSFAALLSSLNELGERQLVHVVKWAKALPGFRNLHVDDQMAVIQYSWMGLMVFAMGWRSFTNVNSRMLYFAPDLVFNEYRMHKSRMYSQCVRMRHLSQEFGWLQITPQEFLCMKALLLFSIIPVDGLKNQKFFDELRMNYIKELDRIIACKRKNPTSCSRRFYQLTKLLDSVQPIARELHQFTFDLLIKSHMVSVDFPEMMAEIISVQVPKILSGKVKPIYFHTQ
How it was run: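 VCaP cells treated with compound alongside solvent controls for 8 h, then lysed in RIPA and protein quantified by BCA. AR detected by SDS-PAGE/Western blot with infrared imaging. Degradation rate calculated from band grayscale, with GAPDH as internal reference.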

AR protein [2] = target: T2, AR protein (Homo sapiens, UniProt P10275, T878A); experiment: Degradation of AR protein in LNCaP cells (Western blot); details: for inhibition at 0.01 µM: read-out: Degradation rates of the AR protein in LNCaP cells, 10 nM (%); for inhibition at 0.1 µM: read-out: Degradation rates of the AR protein in LNCaP cells, 100 nM (%)
T2 construct: degradation activity of the compounds disclosed in the present disclosure on AR protein in LNCaP cells; host or cells: LNCaP FGC
T2 sequence (P10275 1-920 T878A): T1 sequence (P10275 1-920) with T878A
How it was run: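 AR assessed by SDS-PAGE/Western blot with infrared imaging; band greyscale normalised to GAPDH gave percent degradation.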

[3] = VCaP cells, 168 hours, WST-8 absorbance at 450 nm
[4] = LNCaP cells, compound 10 nM, 8 hours, Western blot grayscale, GAPDH internal reference
[5] = LNCaP cells, compound 100 nM, 8 hours, Western blot grayscale, GAPDH internal reference
[6] = Homo sapiens, LNCaP, 96 h, LNCaP FGC cells, 96 hours, WST-8 absorbance at 450 nm, read-out: IC50 for inhibiting the proliferation of LNCaP cells

IC50 (LNCaP FGC cells; LNCaP FGC cells, 96 hours, WST-8 absorbance at 450 nm, read-out: IC50 for inhibiting the proliferation of LNCaP cells) | Structure (SMILES) | IC50 (VCaP cells; [3]) | inhibition at 0.01 µM (AR protein [1]) | inhibition at 0.1 µM (AR protein [1]) | inhibition at 0.01 µM (AR protein [2]; [4]) | inhibition at 0.1 µM (AR protein [2]; [5]) | IC50 (LNCaP FGC cells; [6]) | IC50 (VCaP cells; VCaP, 168 h) | IC50 (LNCaP FGC cells; Homo sapiens, LNCaP, 96 h, read-out: IC50 for inhibiting the proliferation of LNCaP cells, LNCaP FGC cells, 96 hours, WST-8 absorbance at 450 nm) | inhibition at 0.01 µM (AR protein [2]; LNCaP, 8 h) | inhibition at 0.1 µM (AR protein [2]; LNCaP, 8 h)
80100 nM | COC1(CN2CCC3(CCc4ccc5c(c4O3)CN(C3CCC(=O)NC3=O)C5=O)CC2)CCN(c2ccc(C(=O)N[C@H]3CC[C@H](Oc4ccc(C#N)c(Cl)c4)CC3)nn2)CC1 (stereo partly drawn) [Compound 167] | > 90000 nM | 33% | 67% | 45% | 18% | – | – | – | – | –
– | N#Cc1ccc(O[C@H]2CC[C@H](NC(=O)c3ccc(N4CCC5(CC4)COc4cc6c(cc4C5)C(=O)N(C4CCC(=O)NC4=O)C6=O)nn3)CC2)cc1Cl (stereo partly drawn) [Compound 60] | 4400 nM | 41% | 64% | 41% | 64% | 2400 nM | – | – | – | –
– | COc1cc(O[C@H]2C(C)(C)[C@H](NC(=O)c3ccc(N4CCC(C)(CN5CCC6(CC5)COc5c(ccc7c5C(=O)N(C5CCC(=O)NC5=O)C7)C6)CC4)cc3)C2(C)C)ccc1C#N (stereo partly drawn) [Compound 266] | 3.5 nM | 21% | 74% | 49% | 73% | 22000 nM | – | – | – | –
– | N#Cc1ccc(O[C@H]2CC[C@H](NC(=O)c3ccc(N4CC[C@@H](CN5CCC6(CC5)COc5cc7c(cc56)C(=O)N(C5CCC(=O)NC5=O)C7=O)C4)nn3)CC2)cc1Cl (stereo partly drawn) [Compound 57] | 38 nM | 66% | 80% | 45% | 72% | 1360 nM | – | – | – | –
– | COc1cc(O[C@H]2C(C)(C)[C@H](NC(=O)c3ccc(N4CCC(C)(CN5CCC6(CC5)COc5c6ccc6c5CN(C5CCC(=O)NC5=O)C6=O)CC4)cc3)C2(C)C)ccc1C#N (stereo partly drawn) [Compound 221] | 1.5 nM | 16% | 64% | 24% | 76% | 46 nM | – | – | – | –
– | COc1cc(O[C@H]2C(C)(C)[C@H](NC(=O)c3ccc(N4CCC(C)(CN5CC6(CCc7cc8c(cc7O6)C(=O)N(C6CCC(=O)NC6=O)C8=O)C5)CC4)cc3)C2(C)C)ccc1C#N (stereo partly drawn) [Compound 291] | 47 nM | 21% | 53% | 9% | 57% | 2880 nM | – | – | – | –
– | N#Cc1ccc(O[C@H]2CC[C@H](NC(=O)c3ccc(C#CC4CCC(N5CCC6(CC5)COc5c6ccc6c5CN(C5CCC(=O)NC5=O)C6=O)CC4)nc3)CC2)cc1Cl (stereo partly drawn) [Compound 235] | 2 nM | 35% | 76% | 39% | 36% | 840 nM | – | – | – | –
– | CC1(CN2CCC3(CC2)COc2c3ccc3c2C(=O)N(C2CCC(=O)NC2=O)C3=O)CCN(c2ncc(C(=O)NC3CCC(Oc4ccc(C#N)c(Cl)c4)CC3)cn2)CC1 (stereo not drawn) [Compound 245] | 100 nM | 3% | 43% | 2% | 45% | 1820 nM | – | – | – | –
– | N#Cc1ccc(O[C@H]2CC[C@H](NC(=O)c3ccc(N4CC(N5CCC6(CC5)COc5cc7c(cc56)C(=O)N(C5CCC(=O)NC5=O)C7=O)C4)nn3)CC2)cc1Cl (stereo partly drawn) [Compound 49] | – | 24% | 61% | – | – | – | 4000 nM | 2810 nM | 24% | 36%
– | N#Cc1ccc(O[C@H]2CC[C@H](NC(=O)c3ccc(N4CCC5(CC4)CC(C(=O)N4CCC6(CC4)COc4c6ccc6c4CN(C4CCC(=O)NC4=O)C6=O)C5)nn3)CC2)cc1Cl (stereo partly drawn) [Compound 254] | 2.5 nM | 56% | 85% | 53% | 45% | 49100 nM | – | – | – | –
– | COc1cc(O[C@H]2CC[C@H](NC(=O)c3ccc(N4CCC(O)(CN5CCC6(CC5)COc5c6ccc6c5C(=O)N(C5CCC(=O)NC5=O)C6=O)CC4)nn3)CC2)ccc1C#N (stereo partly drawn) [Compound 215] | 500 nM | 63% | 82% | 86% | 91% | 220 nM | – | – | – | –
– | N#Cc1ccc(O[C@H]2CC[C@H](NC(=O)c3ccc(N4CCC(O)(CN5CCC6(CC5)COc5c6ccc6c5C(=O)N(C5CCC(=O)NC5=O)C6=O)CC4)nn3)CC2)cc1C(F)(F)F (stereo partly drawn) [Compound 214] | 48 nM | 7% | 63% | 40% | 68% | 3780 nM | – | – | – | –
– | COc1cc(O[C@H]2C(C)(C)[C@H](NC(=O)c3ccc(N4CCC(C#N)(CN5CCC6(CC5)COc5c6ccc6c5C(=O)N(C5CCC(=O)NC5=O)C6=O)CC4)cc3)C2(C)C)ccc1C#N (stereo partly drawn) [Compound 207] | 38 nM | -46% | 37% | 28% | 40% | 870 nM | – | – | – | –
– | COc1cc(O[C@H]2C(C)(C)[C@H](NC(=O)c3ccc(N4CCC(C)(CN5CCC6(CCc7cc8c(cc7O6)C(=O)N(C6CCC(=O)NC6=O)C8)CC5)CC4)cc3)C2(C)C)ccc1C#N (stereo partly drawn) [Compound 267] | 4.5 nM | 30% | 69% | 30% | 66% | 43200 nM | – | – | – | –
